Assay results: the Kinase Knowledgebase extract (Sharma et al. 2016)

Legend:
[1] = biological target: PIK3CA (human) (UniProt P42336); test: Assessment of PIK3CA Kinase Activity
[2] = biological target: PIK3CG (human) (UniProt P48736); test: Assessment of PIK3CG Kinase Activity
[3] = biological target: PIK3CD (Human) (UniProt O00329); test: Assessment of PIK3CD Kinase Activity
Chain of PIK3CD (Human) (O00329 whole entry, looked up): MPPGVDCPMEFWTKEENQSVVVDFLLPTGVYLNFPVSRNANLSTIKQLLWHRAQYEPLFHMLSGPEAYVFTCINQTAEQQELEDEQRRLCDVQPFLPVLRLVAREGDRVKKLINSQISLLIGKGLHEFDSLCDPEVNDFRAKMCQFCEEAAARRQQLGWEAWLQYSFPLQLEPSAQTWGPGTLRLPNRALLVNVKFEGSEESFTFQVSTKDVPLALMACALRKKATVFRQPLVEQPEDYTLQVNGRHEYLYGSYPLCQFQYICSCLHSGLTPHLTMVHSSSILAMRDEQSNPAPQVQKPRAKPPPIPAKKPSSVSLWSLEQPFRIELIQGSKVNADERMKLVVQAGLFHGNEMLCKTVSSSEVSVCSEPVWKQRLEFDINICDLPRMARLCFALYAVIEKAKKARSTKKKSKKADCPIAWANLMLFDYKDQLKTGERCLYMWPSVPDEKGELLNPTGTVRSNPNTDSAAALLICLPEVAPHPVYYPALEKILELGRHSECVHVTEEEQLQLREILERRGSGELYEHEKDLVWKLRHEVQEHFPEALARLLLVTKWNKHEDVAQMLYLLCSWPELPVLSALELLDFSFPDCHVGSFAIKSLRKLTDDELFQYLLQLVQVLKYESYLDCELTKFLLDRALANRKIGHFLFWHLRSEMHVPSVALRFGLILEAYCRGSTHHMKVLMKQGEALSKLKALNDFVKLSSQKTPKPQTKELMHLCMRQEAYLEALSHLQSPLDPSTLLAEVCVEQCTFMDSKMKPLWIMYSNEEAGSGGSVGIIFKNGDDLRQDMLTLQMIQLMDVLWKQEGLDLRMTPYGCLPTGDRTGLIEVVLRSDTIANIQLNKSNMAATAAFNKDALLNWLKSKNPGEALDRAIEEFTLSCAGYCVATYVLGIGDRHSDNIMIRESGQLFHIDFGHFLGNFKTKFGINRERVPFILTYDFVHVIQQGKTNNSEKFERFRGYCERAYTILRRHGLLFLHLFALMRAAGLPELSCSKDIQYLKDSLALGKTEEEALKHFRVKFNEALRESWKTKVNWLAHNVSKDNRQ

Chain of PIK3CA (human) (P42336 whole entry, looked up): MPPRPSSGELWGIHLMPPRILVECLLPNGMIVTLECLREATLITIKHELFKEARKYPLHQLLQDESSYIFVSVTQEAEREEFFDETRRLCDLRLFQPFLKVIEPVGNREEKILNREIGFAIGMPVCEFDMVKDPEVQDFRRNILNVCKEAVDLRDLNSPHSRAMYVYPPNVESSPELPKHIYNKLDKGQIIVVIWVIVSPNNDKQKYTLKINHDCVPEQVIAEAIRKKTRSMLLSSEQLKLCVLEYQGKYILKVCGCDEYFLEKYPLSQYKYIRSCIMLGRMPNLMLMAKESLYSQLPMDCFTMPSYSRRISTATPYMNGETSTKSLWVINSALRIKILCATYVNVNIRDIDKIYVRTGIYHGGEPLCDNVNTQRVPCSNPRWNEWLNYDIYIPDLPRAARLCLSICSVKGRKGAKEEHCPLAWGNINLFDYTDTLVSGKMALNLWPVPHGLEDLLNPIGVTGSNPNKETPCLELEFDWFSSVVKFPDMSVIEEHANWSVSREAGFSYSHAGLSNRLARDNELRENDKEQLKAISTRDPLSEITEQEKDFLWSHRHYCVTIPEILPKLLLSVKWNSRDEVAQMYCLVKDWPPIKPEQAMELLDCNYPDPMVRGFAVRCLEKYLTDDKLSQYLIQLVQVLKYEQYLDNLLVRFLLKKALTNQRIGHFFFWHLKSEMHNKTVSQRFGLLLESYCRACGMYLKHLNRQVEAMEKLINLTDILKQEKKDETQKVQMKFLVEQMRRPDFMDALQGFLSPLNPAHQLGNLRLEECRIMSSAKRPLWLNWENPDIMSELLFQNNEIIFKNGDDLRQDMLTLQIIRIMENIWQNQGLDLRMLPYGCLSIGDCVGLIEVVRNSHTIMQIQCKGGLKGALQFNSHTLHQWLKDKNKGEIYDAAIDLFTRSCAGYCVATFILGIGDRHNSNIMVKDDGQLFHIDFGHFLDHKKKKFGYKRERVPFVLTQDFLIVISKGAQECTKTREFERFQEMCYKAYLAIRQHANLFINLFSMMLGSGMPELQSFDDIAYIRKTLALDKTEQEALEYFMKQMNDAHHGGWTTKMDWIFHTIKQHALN
Chain of PIK3CG (human) (P48736 whole entry, looked up): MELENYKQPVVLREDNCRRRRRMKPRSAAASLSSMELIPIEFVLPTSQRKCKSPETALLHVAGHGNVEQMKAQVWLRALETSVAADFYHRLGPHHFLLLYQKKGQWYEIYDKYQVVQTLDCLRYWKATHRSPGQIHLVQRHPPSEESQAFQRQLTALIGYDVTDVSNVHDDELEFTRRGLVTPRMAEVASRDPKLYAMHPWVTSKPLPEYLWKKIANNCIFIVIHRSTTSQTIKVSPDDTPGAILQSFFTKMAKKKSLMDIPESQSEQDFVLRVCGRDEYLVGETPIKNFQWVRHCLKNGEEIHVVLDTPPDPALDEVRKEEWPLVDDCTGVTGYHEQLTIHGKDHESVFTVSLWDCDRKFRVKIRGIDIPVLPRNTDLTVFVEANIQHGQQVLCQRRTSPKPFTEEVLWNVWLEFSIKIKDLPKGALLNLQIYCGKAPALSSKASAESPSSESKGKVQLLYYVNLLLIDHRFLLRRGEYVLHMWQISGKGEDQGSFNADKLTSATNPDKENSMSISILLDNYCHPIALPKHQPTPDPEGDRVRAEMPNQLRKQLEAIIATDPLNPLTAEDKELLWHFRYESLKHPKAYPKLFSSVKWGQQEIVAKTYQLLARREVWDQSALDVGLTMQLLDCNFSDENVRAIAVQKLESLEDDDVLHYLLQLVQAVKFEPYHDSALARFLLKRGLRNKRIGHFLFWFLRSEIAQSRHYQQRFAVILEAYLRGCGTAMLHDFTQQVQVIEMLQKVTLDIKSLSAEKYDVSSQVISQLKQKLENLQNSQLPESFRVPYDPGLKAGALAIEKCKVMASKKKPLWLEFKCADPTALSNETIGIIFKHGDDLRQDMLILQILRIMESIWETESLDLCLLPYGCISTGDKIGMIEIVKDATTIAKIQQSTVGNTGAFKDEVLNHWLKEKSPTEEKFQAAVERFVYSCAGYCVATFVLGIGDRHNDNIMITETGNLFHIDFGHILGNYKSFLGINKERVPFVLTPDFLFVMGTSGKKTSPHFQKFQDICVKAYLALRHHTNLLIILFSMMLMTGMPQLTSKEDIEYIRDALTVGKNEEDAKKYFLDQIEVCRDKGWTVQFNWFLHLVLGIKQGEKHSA

| Structure (SMILES) | IC50 [1] | IC50 [2] | IC50 [3] |
| --- | --- | --- | --- |
| Cc1cccc2cc([C@H](C)Nc3nc(N)ncc3C(F)(F)F)n(-c3cccc(F)c3)c(=O)c12 | > 10000 nM | < 100 nM | < 100 nM |
| C[C@H](Nc1nc(N)ncc1-c1ccccn1)c1cc2cccc(Cl)c2c(=O)n1-c1ccccc1 | > 10000 nM | < 100 nM | 100 to 1000 nM |
| C[C@H](Nc1nc(N)ncc1C#N)c1cc2cccc(-c3cncc(S(C)(=O)=O)c3)c2c(=O)n1-c1ccccc1 |  | < 100 nM | < 100 nM |
| COc1ccc(-n2c([C@H](C)Nc3nc(N)ncc3C#N)cc3cccc(Cl)c3c2=O)cc1 | > 10000 nM | < 100 nM | 100 to 1000 nM |
| Cc1cnc(-c2cnc(N)nc2N[C@@H](C)c2cc3cccc(Cl)c3c(=O)n2-c2ccccc2)s1 | > 10000 nM | < 100 nM | 100 to 1000 nM |
| COc1cc(-c2cccc3cc([C@H](C)Nc4nc(N)ncc4-c4cnc(OC)s4)n(-c4ccccc4)c(=O)c23)ccn1 | 100 to 1000 nM | < 100 nM | < 100 nM |
| C[C@H](Nc1nc(N)ncc1-c1ccsc1)c1cc2cccc(Cl)c2c(=O)n1-c1ccccc1 | > 10000 nM | < 100 nM | < 100 nM |
| C[C@H](Nc1nc(N)ncc1C#N)c1cc2cccc(-c3cnoc3)c2c(=O)n1-c1ccccc1 |  | < 100 nM | < 100 nM |
| C[C@H](Nc1nc(N)ncc1C#N)c1cc2cccc(-c3ccc(N(C)C)cc3)c2c(=O)n1-c1ccccc1 |  | < 100 nM | < 100 nM |
| C[C@H](Nc1nc(N)ncc1C#N)c1cc2cccc(-c3ccc(=O)n(C)c3)c2c(=O)n1-c1ccccc1 |  | < 100 nM | < 100 nM |
| CCOc1cc(-c2cccc3cc([C@H](C)Nc4nc(N)ncc4C#N)n(-c4ccccc4)c(=O)c23)ccn1 | 100 to 1000 nM | < 100 nM | < 100 nM |
| COc1cc(-c2cccc3nc([C@H](C)Nc4nc(N)ncc4C#N)n(-c4ccccc4)c(=O)c23)ccn1 |  | < 100 nM | < 100 nM |
| Cc1cncc(-c2cccc3cc([C@H](C)Nc4nc(N)ncc4C#N)n(-c4ccccc4)c(=O)c23)c1 |  | < 100 nM | < 100 nM |
| CC(C)Oc1cncc(-c2cccc3cc([C@H](C)Nc4nc(N)ncc4C#N)n(-c4ccccc4)c(=O)c23)c1 | < 100 nM | < 100 nM | < 100 nM |
| COc1ccc(-c2cccc3cc([C@H](C)Nc4nc(N)ncc4C#N)n(-c4ccccc4)c(=O)c23)cc1 |  | < 100 nM | < 100 nM |
| Cc1cc(-c2cccc3cc([C@H](C)Nc4nc(N)ncc4C#N)n(-c4ccccc4)c(=O)c23)ccn1 | 100 to 1000 nM | < 100 nM | < 100 nM |
| COc1cncc(-c2cccc3cc([C@H](C)Nc4nc(N)ncc4C#N)n(-c4cccc(F)c4)c(=O)c23)c1 | 100 to 1000 nM | < 100 nM | < 100 nM |
| C[C@H](Nc1nc(N)ncc1C#N)c1cc2cccc(-c3ccnnc3)c2c(=O)n1-c1cccc(F)c1 | > 10000 nM | 100 to 1000 nM | < 100 nM |
| Cc1ncc(-c2cccc3cc([C@H](C)Nc4nc(N)ncc4C#N)n(-c4ccccc4)c(=O)c23)s1 |  | < 100 nM | < 100 nM |
| COc1cc(-c2cccc3cc([C@H](C)Nc4nc(N)ncc4C#N)n(-c4cccc(F)c4)c(=O)c23)ccn1 | 100 to 1000 nM | < 100 nM | < 100 nM |
| C[C@H](Nc1nc(N)ncc1C#N)c1cc2cccc(-c3ccc(S(N)(=O)=O)cc3)c2c(=O)n1-c1ccccc1 |  | < 100 nM | < 100 nM |
| COc1cccc(-c2cccc3cc([C@H](C)Nc4nc(N)ncc4C#N)n(-c4ccccc4)c(=O)c23)c1 | < 100 nM | < 100 nM | < 100 nM |

| Structure (SMILES) | IC50 [1] | IC50 [2] | IC50 [3] |
| --- | --- | --- | --- |
| C[C@H](Nc1nc(N)ncc1C#N)c1cc2cccc(-c3ccc(C#N)cc3)c2c(=O)n1-c1ccccc1 |  | < 100 nM | < 100 nM |
| C[C@H](Nc1nc(N)ncc1C#N)c1cc2cccc(-c3cncc(C(F)(F)F)c3)c2c(=O)n1-c1ccccc1 |  | < 100 nM | < 100 nM |
| C[C@H](Nc1nc(N)ncc1C#N)c1cc2cccc(-c3ccc(=O)n(C4CCOCC4)c3)c2c(=O)n1-c1ccccc1 | 100 to 1000 nM | < 100 nM | < 100 nM |
| CC(C)n1cc(-c2cccc3cc([C@H](C)Nc4nc(N)ncc4C#N)n(-c4ccccc4)c(=O)c23)ccc1=O |  | < 100 nM | < 100 nM |
| C[C@H](Nc1nc(N)ncc1C#N)c1cc2cccc(Cl)c2c(=O)n1CC(C)(C)C | > 10000 nM | 100 to 1000 nM | 100 to 1000 nM |
| C[C@H](Nc1nc(N)ncc1C#N)c1cc2cccc(Cl)c2c(=O)n1-c1cccc(F)c1F | > 10000 nM | < 100 nM | < 100 nM |
| C[C@H](Nc1nc(N)ncc1-c1nccs1)c1cc2cccc(Cl)c2c(=O)n1-c1ccccc1 |  | < 100 nM | < 100 nM |
| C[C@H](Nc1nc(N)ncc1C#N)c1cc2cccc(Cl)c2c(=O)n1C1CCCCC1 |  | < 100 nM | < 100 nM |
| C[C@H](Nc1nc(N)ncc1C#N)c1cc2cccc(-c3cnc4ccccc4c3)c2c(=O)n1-c1cccc(F)c1 | 100 to 1000 nM | < 100 nM | < 100 nM |
| C[C@H](Nc1nc(N)ncc1C#N)c1cc2cccc(C#CCCC(=O)N3CCCC3)c2c(=O)n1-c1ccccc1 |  | < 100 nM | < 100 nM |
| C[C@H](Nc1nc(N)ncc1C#N)c1cc2cccc(Cl)c2c(=O)n1-c1c(F)cc(F)cc1F | > 10000 nM | < 100 nM | 100 to 1000 nM |
| C[C@H](Nc1nc(N)ncc1C#N)c1cc2cccc(-c3c[nH]nn3)c2c(=O)n1-c1ccccc1 |  | < 100 nM | < 100 nM |
| COc1ncc(-c2cccc3cc([C@H](C)Nc4nc(N)ncc4C#N)n(C4CC4)c(=O)c23)cn1 |  | 100 to 1000 nM | < 100 nM |
| COc1ccc(-c2cccc3cc([C@H](C)Nc4nc(N)ncc4C#N)n(-c4ccccc4)c(=O)c23)cn1 |  | < 100 nM | < 100 nM |
| Cc1cc(-c2cccc3nc([C@H](C)Nc4nc(N)ncc4C#N)n(-c4ccccc4)c(=O)c23)ccn1 |  | < 100 nM | < 100 nM |
| C[C@H](Nc1nc(N)ncc1C#N)c1nc2cccc(-c3ccnnc3)c2c(=O)n1-c1ccccc1 |  | < 100 nM | < 100 nM |
| COc1cc(-c2cccc3cc([C@H](C)Nc4nc(N)ncc4C#N)n(-c4ccccc4)c(=O)c23)cnc1OC | < 100 nM | < 100 nM | < 100 nM |
| C[C@H](Nc1nc(N)ncc1-c1ccncc1)c1cc2cccc(Cl)c2c(=O)n1-c1ccccc1 | > 10000 nM | < 100 nM | 100 to 1000 nM |
| C[C@H](Nc1nc(N)ncc1C#N)c1cc2cccc(-c3ccnc(N)c3)c2c(=O)n1-c1ccccc1 |  | < 100 nM | < 100 nM |
| C[C@H](Nc1nc(N)ncc1-c1ccc(O)cc1)c1cc2cccc(Cl)c2c(=O)n1-c1ccccc1 | > 10000 nM | < 100 nM | 100 to 1000 nM |
| C[C@H](Nc1nc(N)ncc1C#N)c1cc2cccc(-c3cccc(S(N)(=O)=O)c3)c2c(=O)n1-c1ccccc1 |  | < 100 nM | < 100 nM |
| C[C@H](Nc1nc(N)ncc1C#N)c1cc2cccc(-c3cncc(F)c3)c2c(=O)n1-c1ccccc1 |  | < 100 nM | < 100 nM |

| Structure (SMILES) | IC50 [1] | IC50 [2] | IC50 [3] |
| --- | --- | --- | --- |
| C[C@H](Nc1nc(N)ncc1C#N)c1cc2cccc(Cl)c2c(=O)n1Cc1ccccc1 | > 10000 nM | 100 to 1000 nM | < 100 nM |
| COc1cc(-c2cccc3cc([C@H](C)Nc4nc(N)ncc4C#N)n(-c4ccccc4)c(=O)c23)cnc1C | 100 to 1000 nM | < 100 nM | < 100 nM |
| C[C@H](Nc1nc(N)ncc1C#N)c1cc2cccc(-c3cccc(NS(C)(=O)=O)c3)c2c(=O)n1-c1ccccc1 |  | < 100 nM | < 100 nM |
| C[C@H](Nc1nc(N)ncc1C#N)c1cc2cccc(-c3ccc4c(c3)OCO4)c2c(=O)n1-c1ccccc1 |  | < 100 nM | < 100 nM |
| Cc1ccc(-n2c([C@H](C)Nc3nc(N)ncc3C#N)cc3cccc(Cl)c3c2=O)cc1 | > 10000 nM | < 100 nM | < 100 nM |
| C[C@H](Nc1nc(N)ncc1C#N)c1cc2cccc(O)c2c(=O)n1-c1ccccc1 | > 10000 nM | < 100 nM | < 100 nM |
| C[C@H](Nc1nc(N)ncc1C#N)c1cc2cccc(-c3cccc(N(C)C)c3)c2c(=O)n1-c1ccccc1 | 100 to 1000 nM | < 100 nM | < 100 nM |
| COc1cncc(-c2cccc3nc([C@H](C)Nc4nc(N)ncc4C#N)n(-c4ccccc4)c(=O)c23)c1 | 100 to 1000 nM | < 100 nM | < 100 nM |
| COc1ncc(-c2cccc3cc([C@H](C)Nc4nc(N)ncc4C#N)n(-c4ccccc4)c(=O)c23)s1 |  | < 100 nM | < 100 nM |
| C[C@H](Nc1nc(N)ncc1C#N)c1cc2cccc(-c3ccnc(NS(C)(=O)=O)c3)c2c(=O)n1-c1ccccc1 |  | < 100 nM | < 100 nM |
| C[C@H](Nc1nc(N)ncc1C#N)c1cc2cccc(CC#N)c2c(=O)n1-c1ccccc1 | > 10000 nM | < 100 nM | < 100 nM |
| C[C@H](Nc1nc(N)ncc1C#N)c1cc2cccc(-c3ccc(NS(C)(=O)=O)cc3)c2c(=O)n1-c1ccccc1 |  | < 100 nM | < 100 nM |
| C[C@H](Nc1nc(N)ncc1C#N)c1cc2cccc(-c3ccc(Cl)cc3)c2c(=O)n1-c1ccccc1 |  | < 100 nM | < 100 nM |
| C[C@H](Nc1nc(N)ncc1C#N)c1cc2cccc(-c3ccc(=O)n(CC4CC4)c3)c2c(=O)n1-c1ccccc1 |  | < 100 nM | < 100 nM |
| CCn1cc(-c2cccc3cc([C@H](C)Nc4nc(N)ncc4C#N)n(-c4ccccc4)c(=O)c23)ccc1=O |  | < 100 nM | < 100 nM |
| C[C@H](Nc1nc(N)ncc1C#N)c1nc2cccc(-c3cnn(C)c3)c2c(=O)n1-c1ccccc1 |  | < 100 nM | < 100 nM |
| C[C@H](Nc1nc(N)ncc1C#N)c1cc2cccc(-c3cccc(C#N)c3)c2c(=O)n1-c1ccccc1 |  | < 100 nM | < 100 nM |
| C[C@H](Nc1nc(N)ncc1C#N)c1cc2cccc(Cl)c2c(=O)n1-c1ccc(C#N)cc1 | > 10000 nM | 100 to 1000 nM |  |
| C[C@H](Nc1nc(N)ncc1C#N)c1cc2ccccc2c(=O)n1-c1ccccc1 |  | < 100 nM | < 100 nM |
| Cc1cc(-c2cccc3cc([C@H](C)Nc4nc(N)ncc4C#N)n(-c4cccc(F)c4)c(=O)c23)ccn1 |  | < 100 nM | < 100 nM |
